# Experimental data taken from patent US20240262826A1, “WILD TYPE KIT INHIBITORS” (Blueprint Medicines Corporation, priority 2022, published 2024).
# Assays:
# wild type c-kit = wild type c-kit (Homo sapiens (Human), UniProt P10721); experiment: PathScan phospho c-kit (Tyr719) sandwich ELISA in SCF-stimulated M-07e cells (pKIT assay); format: cell-based; conditions: ELISA assay (values not marked *)
# In short: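 Serum- and GM-CSF-starved M-07e cells (4 h) pretreated 60 min at 37 °C with an 8-point compound series in duplicate (0.25% DMSO), then stimulated with human SCF (500 ng/mL stock) 10 min at room temperature. Lysate c-kit Tyr719 phosphorylation quantified by sandwich ELISA with TMB read-out; IC50 from 4-parameter logistic fit.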
# [1] = tested on: NIH3T3 cell lines that overexpressed the kit mutation exon 9; experiment: Exon 9 assay: cell viability (CellCounting Lite 2.0), 72 hours; format: cell-based; conditions: Mus musculus, read-out: IC50 NIH3T3-cKit-AY502-3dup
# Procedure: (§1) Exon 9 assay: The NIH3T3 cell lines that overexpressed the kit mutation exon 9 (or parental cells) were resuscitated and well cultured, and the cells were collected and seeded in 96-well plates at 3000/well, then the compounds were added to the 96 well plates in a gradient dilution, and the plates were incubated in an incubator for 72 hours.
# (§2) After 72 hours of incubation, an equal volume of CellCounting
# (§3) Lite 2.0 Luminescent Cell Viability reagent was added to the 96-well plates to detect the cell viability. The data were analyzed using GraphPad Prism 7.0 softwar e, and the nonlinear S-curve regression was used to fit the data to obtain the dose-effect curve, and the IC50 value was calculated accordingly.
# NIH3T3 parental cells = experiment: Exon 9 assay, parental cells: cell viability (CellCounting Lite 2.0), 72 hours; format: cell-based; conditions: Mus musculus
# Procedure: as §1, §2, §3
# [2] = target: human P-glycoprotein (P-gp, MDR1) (Homo sapiens (Human), UniProt P08183); experiment: MDCK-MDR1 cell monolayer drug transport assay (P-gp efflux ratio); format: in vitro ADME; conditions: pH 7.4, MDCK-MDR1 cells, 1 uM concentration of compound, read-out: Pgp Efflux Ratio, 1 uM
# In short: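 P-gp substrate potential tested in MDCK-MDR1 monolayers on Transwell supports, cultured 4-8 days; monolayers with TEER <42 ohms·cm2 discarded. Transport run in HBSS (10 mM HEPES, pH 7.4) at 37° C with compound working solution at 1 μM.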
# Exon 11 KIT = Exon 11 KIT (Homo sapiens (Human), UniProt P10721, V560G); experiment: Exon 11 HMC1.1 autophosphorylation assay (Phospho-Y719 c-KIT ELISA); format: cell-based; conditions: 90 minutes, read-out: IC50 HMC1.1 pKIT
# Procedure: Exon 11 HMC1.1 autophosphorylation assay: 50,000 HMC1.1 cells were incubated in 50 ul culture media (phenol-red free IMDM, no iron, no serum) in each well of a 96-well plate and serum starved 4 hours in a tissue culture incubator (5% CO2, 37° C.). An 8-point dose concentration series of compound were then added to the cells in a volume of 7 ul to each well. After 90 minutes, 14 ul of 5× AlphaLISA Lysis Buffer (Perkin Elmer) supplemented with a protease and phosphatase inhibitor cocktail (Cell Signaling Technologies) was added to each well and shaken at […] for 5 minutes at 4° C. Phospho-Y719 c-KIT ELISA kit from Cell Signaling Technology was used to assess levels of phospho KIT.
# Sequence of wild type c-kit (P10721 26-976): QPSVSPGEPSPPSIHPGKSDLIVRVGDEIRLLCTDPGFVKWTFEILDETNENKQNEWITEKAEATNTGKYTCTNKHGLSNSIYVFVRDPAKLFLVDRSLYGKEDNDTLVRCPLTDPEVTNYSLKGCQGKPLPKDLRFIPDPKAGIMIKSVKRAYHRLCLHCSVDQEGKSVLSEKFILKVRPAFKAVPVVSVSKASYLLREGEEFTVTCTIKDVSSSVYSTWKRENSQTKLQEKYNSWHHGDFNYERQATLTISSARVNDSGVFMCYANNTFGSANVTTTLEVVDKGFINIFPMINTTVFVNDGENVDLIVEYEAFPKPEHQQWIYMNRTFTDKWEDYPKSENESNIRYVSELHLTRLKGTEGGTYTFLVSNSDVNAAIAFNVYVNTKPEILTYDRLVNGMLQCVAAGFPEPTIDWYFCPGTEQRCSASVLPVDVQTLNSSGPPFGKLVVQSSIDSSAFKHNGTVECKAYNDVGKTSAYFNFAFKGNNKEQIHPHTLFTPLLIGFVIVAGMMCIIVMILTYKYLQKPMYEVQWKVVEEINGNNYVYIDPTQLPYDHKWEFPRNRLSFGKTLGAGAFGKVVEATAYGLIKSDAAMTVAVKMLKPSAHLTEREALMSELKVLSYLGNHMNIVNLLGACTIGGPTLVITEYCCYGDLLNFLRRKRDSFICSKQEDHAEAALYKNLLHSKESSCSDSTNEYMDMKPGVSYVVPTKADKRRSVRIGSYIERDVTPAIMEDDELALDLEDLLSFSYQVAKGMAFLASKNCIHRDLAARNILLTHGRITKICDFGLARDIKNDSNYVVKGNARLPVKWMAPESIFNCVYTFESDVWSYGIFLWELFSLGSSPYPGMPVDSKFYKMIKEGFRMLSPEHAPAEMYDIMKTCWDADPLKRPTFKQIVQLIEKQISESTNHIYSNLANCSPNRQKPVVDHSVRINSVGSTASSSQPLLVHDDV
# Sequence of Exon 11 KIT (P10721 26-976 V560G): as the sequence (P10721 26-976) above, with V535G counted along it
# Sequence of human P-glycoprotein (P-gp, MDR1) (P08183 whole entry): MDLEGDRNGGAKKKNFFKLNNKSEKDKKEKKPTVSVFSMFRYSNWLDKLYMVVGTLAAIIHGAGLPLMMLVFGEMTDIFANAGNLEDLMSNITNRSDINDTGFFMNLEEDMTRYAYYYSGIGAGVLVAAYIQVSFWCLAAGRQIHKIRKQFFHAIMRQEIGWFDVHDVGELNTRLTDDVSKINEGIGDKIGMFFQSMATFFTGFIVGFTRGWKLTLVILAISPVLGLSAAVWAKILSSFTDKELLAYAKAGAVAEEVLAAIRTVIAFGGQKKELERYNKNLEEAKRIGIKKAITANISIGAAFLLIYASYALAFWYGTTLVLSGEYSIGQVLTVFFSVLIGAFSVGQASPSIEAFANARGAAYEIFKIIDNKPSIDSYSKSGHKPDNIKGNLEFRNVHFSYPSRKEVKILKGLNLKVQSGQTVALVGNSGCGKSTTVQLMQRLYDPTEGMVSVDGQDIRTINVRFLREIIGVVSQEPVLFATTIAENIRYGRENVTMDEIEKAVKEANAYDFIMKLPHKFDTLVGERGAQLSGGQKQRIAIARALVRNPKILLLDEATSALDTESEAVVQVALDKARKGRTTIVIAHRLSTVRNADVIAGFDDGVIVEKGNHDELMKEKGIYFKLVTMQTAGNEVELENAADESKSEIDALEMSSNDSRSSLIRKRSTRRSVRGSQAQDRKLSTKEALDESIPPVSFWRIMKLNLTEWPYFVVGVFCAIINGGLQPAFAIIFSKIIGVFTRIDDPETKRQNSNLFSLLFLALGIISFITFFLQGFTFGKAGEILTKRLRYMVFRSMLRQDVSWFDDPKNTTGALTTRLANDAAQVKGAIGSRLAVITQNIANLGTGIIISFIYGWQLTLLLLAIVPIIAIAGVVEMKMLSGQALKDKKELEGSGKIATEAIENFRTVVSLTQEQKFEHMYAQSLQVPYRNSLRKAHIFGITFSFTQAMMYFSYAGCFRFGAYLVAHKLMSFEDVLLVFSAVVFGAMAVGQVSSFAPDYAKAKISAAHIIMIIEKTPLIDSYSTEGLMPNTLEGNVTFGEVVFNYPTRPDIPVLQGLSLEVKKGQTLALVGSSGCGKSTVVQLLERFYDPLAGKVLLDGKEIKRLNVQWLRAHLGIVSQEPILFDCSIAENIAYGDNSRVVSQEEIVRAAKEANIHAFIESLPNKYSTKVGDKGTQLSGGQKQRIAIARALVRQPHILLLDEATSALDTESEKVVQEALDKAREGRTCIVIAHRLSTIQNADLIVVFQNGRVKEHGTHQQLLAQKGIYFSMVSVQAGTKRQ
IC50 (wild type c-kit),"efflux ratio at 2 h, 1 µM [2]",IC50 (Exon 11 KIT),Structure (SMILES),IC50 [1],IC50 (NIH3T3 parental cells)
0.2 nM,–,–,"Cc1nn(C[C@H](C)O)cc1-c1ccn2ncc(C(=O)Nc3cc(-c4nnn(C5CC5)n4)c(F)cc3Cl)c2c1 [Example 280, (S)—N-(2-chloro-5-(2-cyclopropyl-2H-tetrazol-5-yl)-4-fluorophenyl)-5-(1-(2-hydroxypropyl)-3-methyl-1H-pyrazol-4-yl)pyrazolo[1,5-a]pyridine-3-carboxamide]",10 nM,413 nM
34.8 nM,24.9,1 nM,"COCCNc1ccn2ncc(C(=O)Nc3cc(-c4nnn(C5CN(C(=O)OC)C5)n4)ccc3C)c2c1 [Example 148, methyl 3-(5-(3-(5-((2-methoxyethyl)amino)pyrazolo[1,5-a]pyridine-3-carboxamido)-4-methylphenyl)-2H-tetrazol-2-yl)azetidine-1-carboxylate]",–,–
0.2 nM,3,0.2 nM,"COC[C@@H](O)Cn1cc(-c2ccn3ncc(C(=O)Nc4cc(-c5nnn(C6CC6)n5)ccc4Cl)c3c2)c(C)n1 [Example 263, (S)-N-(2-chloro-5-(2-cyclopropyl-2H-tetrazol-5-yl)phenyl)-5-(1-(2-hydroxy-3-methoxypropyl)-3-methyl-1H-pyrazol-4-yl)pyrazolo[1,5-a]pyridine-3-carboxamide]",2 nM,123 nM
0.5 nM,3.2,0.7 nM,"COC[C@@H](O)Cn1cc(-c2ccn3ncc(C(=O)Nc4cc(-c5nnn(C6CC6)n5)ccc4Cl)c3c2)cn1 [Example 237, (S)-N-(2-chloro-5-(2-cyclopropyl-2H-tetrazol-5-yl)phenyl)-5-(1-(2-hydroxy-3-methoxypropyl)-1H-pyrazol-4-yl)pyrazolo[1,5-a]pyridine-3-carboxamide]",15.6 nM,–
19 nM,–,6.4 nM,"COC(=O)N1CC(c2cnn(-c3ccc(C)c(NC(=O)c4cnn5ccc(N6CCN(C)CC6)cc45)c3)n2)C1 [Example 81, methyl 3-(2-(4-methyl-3-(5-(4-methylpiperazin-1-yl)pyrazolo[1,5-a]pyridine-3-carboxamido)phenyl)-2H-1,2,3-triazol-4-yl)azetidine-1-carboxylate]",–,–
0.3 nM,3.6,0.2 nM,"Cc1nn(C[C@H](C)O)cc1-c1ccn2ncc(C(=O)Nc3cc(-c4nnn(C5CC5)n4)ccc3Cl)c2c1 [Example 278, (S)—N-(2-chloro-5-(2-cyclopropyl-2H-tetrazol-5-yl)phenyl)-5-(1-(2-hydroxypropyl)-3-methyl-1H-pyrazol-4-yl)pyrazolo[1,5-a]pyridine-3-carboxamide]",–,–
0.3 nM,13.2,0.9 nM,"Cc1cc(F)c(-c2nnn(C3CC3)n2)cc1NC(=O)c1cnn2ccc(-c3cn(CC(C)(C)O)nc3C)cc12 [Example 239, N-(5-(2-cyclopropyl-2H-tetrazol-5-yl)-4-fluoro-2-methylphenyl)-5-(1-(2-hydroxy-2-methylpropyl)-3-methyl-1H-pyrazol-4-yl)pyrazolo[1,5-a]pyridine-3-carboxamide]",–,–
0.2 nM,–,0.2 nM,"CCn1nnc(-c2ccc(Cl)c(NC(=O)c3cnn4ccc(-c5cn(C[C@H](O)COC)nc5C)cc34)c2)n1 [Example 284, (S)—N-(2-chloro-5-(2-ethyl-2H-tetrazol-5-yl)phenyl)-5-(1-(2-hydroxy-3-methoxypropyl)-3-methyl-1H-pyrazol-4-yl)pyrazolo[1,5-a]pyridine-3-carboxamide]",7.5 nM,161 nM
0.3 nM,–,–,"COCCOC[C@H](O)Cn1cc(-c2ccn3ncc(C(=O)Nc4cc(-c5nnn(C6CC6)n5)c(F)cc4Cl)c3c2)c(C)n1 [Example 286, (R)—N-(2-chloro-5-(2-cyclopropyl-2H-tetrazol-5-yl)-4-fluorophenyl)-5-(1-(2-hydroxy-3-(2-methoxyethoxy)propyl)-3-methyl-1H-pyrazol-4-yl)pyrazolo[1,5-a]pyridine-3-carboxamide]",42.5 nM,480 nM
